Patent publication US5672707A (priority 1991, dated 1997)
“Also recorded” adds a separate entry of the source.

Tests used:
[1] = test system: mice; assay: Psychotropic activity test: arecoline induced hyperkynesis; type: in vivo; details: intraperitoneally, dose 1/20 of LD
[2] = test system: mice; assay: Psychotropic activity test: motor activity; type: in vivo; details: intraperitoneally, dose 1/20 of LD
[3] = test system: rats; assay: Passive avoidance test in normal rats, 50% acquisition; type: in vivo; details: for Increase of the number of correct trails (% to control). Passive avoidance test (rats) / change in vivo at 0.1 mg/kg: 0.1 mg/kg i.p. 20 min before training, piracetam 250 mg/kg 60 min before training, rats; for change in vivo at 0.1 mg/kg: Rattus norvegicus, ip, 20 min, read-out: Increase of the number of correct trails (% to control). Passive avoidance test (rats)
Procedure: (§1) Psychoneurotropic activity of the declared compounds and their influence on learning and memory were observed using unbred male (18-20 g) mice and 180-200 g) rats, held at standard conditions (room temperature 21°-22° C., 12-hours lighting schedule, food and water ad libitum).
The influence of drugs on reflex conditioning in rats was studied by the passive avoidance test in conditions of 50% acquisition. The effect of the compound was estimated by the increase of the relative number of learned animals with respect to that of control group. […] The other reference drug--noothropic agent piracetam--was given in the dose 250 mg/kg 60 min before training. Amnestic syndrome was stimulated by 20 days application of Sc at the daily dose of 1 mg/kg intraperitoneally. […] The passive avoidance test was performed within 24 hours after the last application of test preparations.

[4] = test system: mice; assay: Step-down test, scopolamine induced amnesia; type: in vivo
Procedure: as §1

[5] = in vivo; details: intraperitoneal injection, Table 5; for LD50: in vivo, ip, read-out: LD50 (mg/kg) by Kerber
Procedure: as §1
Acute toxicity was studied by the method of Kerber with intra peritoneal drug injection.

[6] = molecular target: T1, Acetylcholinesterase, enzyme from human erythrocytes (Homo sapiens, UniProt P22303); assay: Acetylcholinesterase inhibition, spectrophotometric technique of Ellman; type: biochemical; details: Acetylcholinesterase inhibition IC50 (M), enzyme from human erythrocytes; Table 5
T1 construct: on the enzyme from human erythrocytes; from tissue; host or cells: human erythrocytes
Procedure: Acetylcholinesterase inhibition under the action of preparations was assessed by the spectrophotometric technique of Ellman on the enzyme from human erythrocytes.

[7] = test system: rat adipocytes; assay: Lipid content in incubation medium after incubation of adipocytes; type: cell-based; details: incubation medium; Table 12
Procedure: (§2) Lipid regulative activity of the declared compounds--derivatives of 9-amino acridine--were evaluated in vitro[…] using rat adipocytes. Adipocytes were separated from adipose tissue of testis appendages of adult male rats. Lipid composition analysis was performed by the method of thin-layer chromatography.
(§3) Quantitative analysis of phospholipids (PL), mono- and diacylglycerides (MDG), triacylglycerides (TG), free fatty acids (FFA), free cholesterol (FCL), and methyl esters of fatty acids (MEFA) was performed by the method of spectrophotometry.

[8] = test system: rat adipocytes; assay: Lipid composition of adipocytes after incubation with compounds; type: cell-based; details: for FFA/TG in adipocytes / PL/CL in adipocytes / PL/TG in adipocytes: cells, Table 11; for FFAc/FFAm / PLc/PLm: distribution between cells and incubation medium, Table 13
Procedure: as §2, §3

[9] = test system: K channels; assay: Ionic permeabilities of excitable membranes, voltage clamp in the Ranvier node; type: cell-based, frog

T1 sequence (P22303-2 with tags, fused parts or gaps limits assumed): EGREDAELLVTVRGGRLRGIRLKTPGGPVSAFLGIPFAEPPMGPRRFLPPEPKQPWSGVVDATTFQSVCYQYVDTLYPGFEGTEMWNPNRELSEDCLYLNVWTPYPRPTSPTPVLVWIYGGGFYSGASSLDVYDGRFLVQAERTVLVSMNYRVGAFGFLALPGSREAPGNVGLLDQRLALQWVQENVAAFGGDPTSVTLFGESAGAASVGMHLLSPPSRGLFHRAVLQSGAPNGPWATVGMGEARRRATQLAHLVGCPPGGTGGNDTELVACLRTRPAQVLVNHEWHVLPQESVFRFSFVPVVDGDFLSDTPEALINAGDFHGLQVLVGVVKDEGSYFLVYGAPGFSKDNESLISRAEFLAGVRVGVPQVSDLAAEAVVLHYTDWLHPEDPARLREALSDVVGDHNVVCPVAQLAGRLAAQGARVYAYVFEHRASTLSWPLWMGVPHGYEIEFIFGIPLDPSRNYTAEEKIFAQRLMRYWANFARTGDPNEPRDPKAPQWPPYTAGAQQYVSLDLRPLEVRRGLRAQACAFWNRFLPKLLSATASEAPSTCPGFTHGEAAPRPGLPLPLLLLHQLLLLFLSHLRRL

CC1(C)C=Cc2c(nc3ccccc3c2NCc2ccccc2)C1 [VIIi]
Increase of duration of arecoline induced hyperkynesis (% to control) [1]: 15 % to control
Motor activity increment (% to control) [2]: 20 % to control
Performance of normal rats in passive avoidance test ([3]; normal rats): statistically significantly improved performance of normal rats
Increase of the number of correct trails (% to control). Passive avoidance test (rats) [3]: 35 % to control
Antiamnestic activity in Step-down test [4]: pronounced antiatonestic activity, comparable with that of amiridine and tacrine
Antiamnestic activity in Step-down test (% of mice with latency > cut off) [4]: 25 % of mice
LD50 (mg/kg) by Kerber [5]: 500 mg/kg

CC1(C)CC(=O)c2c(nc3ccc(Br)cc3c2N)C1 [IVd]
Increase of duration of arecoline induced hyperkynesis (% to control) [1]: 20 % to control
IC50 [6]: 5e-05 M
Motor activity increment (% to control) [2]: 15 % to control
change in vivo at 0.1 mg/kg [3]: 0%
LD50 [5]: > 500 mg/kg

CCCCNc1c2c(nc3ccccc13)CC(C)(C)CC2=O [Vaa]
Increase of duration of arecoline induced hyperkynesis (% to control) [1]: 25 % to control
Motor activity increment (% to control) [2]: 26 % to control
FFA/TG in incubation medium [7]: 0.92
PL/CL in incubation medium [7]: 0.71
PL/TG in incubation medium [7]: 0.55
Increase of the number of correct trails (% to control). Passive avoidance test (rats) [3]: 15 % to control
FFA/TG in adipocytes [8]: 0.94
PL/CL in adipocytes [8]: 0.63
PL/TG in adipocytes [8]: 0.58
FFAc/FFAm [8]: 1.01
PLc/PLm [8]: 1.04
Antiamnestic activity in Step-down test [4]: pronounced antiatonestic activity, comparable with that of amiridine and tacrine
Antiamnestic activity in Step-down test (% of mice with latency > cut off) [4]: 25 % of mice
LD50 (mg/kg) by Kerber [5]: 650.0 ± 11.3 mg/kg

CC1(C)CC(=O)c2c(nc3ccccc3c2NCc2ccc(Cl)cc2)C1 [Vf]
Increase of duration of arecoline induced hyperkynesis (% to control) [1]: 0 % to control
IC50 [6]: 8e-05 M
Motor activity increment (% to control) [2]: 13 % to control
The shift of activation region of K channels: substance lowest concentrations in M producing measureable shift of 1-2 mV [9]: no effect
change in vivo at 0.1 mg/kg [3]: 0%
Antiamnestic activity in Step-down test (% of mice with latency > cut off) [4]: 0 % of mice
LD50 [5]: > 1000 mg/kg

CC1(C)C=Cc2c(nc3ccccc3c2NCc2ccc(Cl)cc2)C1 [VIId]
Increase of duration of arecoline induced hyperkynesis (% to control) [1]: 15 % to control
IC50 [6]: 6e-09 M
Motor activity increment (% to control) [2]: 28 % to control
FFA/TG in incubation medium [7]: 0.96
PL/CL in incubation medium [7]: 0.75
PL/TG in incubation medium [7]: 0.67
change in vivo at 0.1 mg/kg [3]: 60%
Performance of normal rats in passive avoidance test ([3]; normal rats): statistically significantly improved performance of normal rats
Improving learning and memory compared with amiridine and piracetam ([3]; normal rats, passive avoidance test): as effective in improving learning and memory as amiridine and piracetam
Change of lipid composition in adipocytes [8]: significaut lipolytic effect; also recorded: significant lipolytic effect
Lipid-regulative effect compared with probucol [8]: not inferior
Potency of effect on lipid composition of adipocytes [8]: most potent effect on lipid composition of adipocytes
FFA/TG in adipocytes [8]: 1.16
PL/CL in adipocytes [8]: 0.69
PL/TG in adipocytes [8]: 0.73
FFAc/FFAm [8]: 1.07
PLc/PLm [8]: 0.97
Antiamnestic activity in Step-down test (% of mice with latency > cut off) [4]: 20 % of mice
LD50 [5]: 126 ± 8.9 mg/kg

CCCNc1c2c(nc3ccccc13)CC(C)(C)CC2=O [Vl]
Increase of duration of arecoline induced hyperkynesis (% to control) [1]: 30 % to control
IC50 [6]: 3e-06 M
Motor activity increment (% to control) [2]: 74 % to control
change in vivo at 0.1 mg/kg [3]: 0%
LD50 [5]: 283 ± 35.7 mg/kg

Cc1ccc2nc3c(c(N)c2c1)C(=O)CC(C)(C)C3 [IVj]
Increase of duration of arecoline induced hyperkynesis (% to control) [1]: 30 % to control
IC50 [6]: 3e-05 M
Motor activity increment (% to control) [2]: 0 % to control
change in vivo at 0.1 mg/kg [3]: 0%
LD50 [5]: 63.6 ± 8.7 mg/kg

CC1(C)Cc2nc3ccccc3c(NCc3ccccc3)c2C(O)C1 (stereo not drawn) [VIe, 9-benzylamino-3,3-dimethyl-1,2,3,4-tetrahydroacridine-1-ol]
Increase of duration of arecoline induced hyperkynesis (% to control) [1]: 15 % to control
IC50 [6]: 1.3e-06 M
Motor activity increment (% to control) [2]: 64 % to control
change in vivo at 0.1 mg/kg [3]: 0%
LD50 [5]: 50 ± 8.6 mg/kg

CC1(C)Cc2nc3ccccc3c(NCc3ccc(Cl)cc3)c2C(O)C1 (stereo not drawn) [VIg]
Increase of duration of arecoline induced hyperkynesis (% to control) [1]: 36 % to control
IC50 [6]: 3e-06 M
Motor activity increment (% to control) [2]: 40 % to control
change in vivo at 0.1 mg/kg [3]: 0%
LD50 [5]: 80 ± 2.7 mg/kg
